Measured values as given in patent US20240246937A1 (MERCK SHARP & DOHME LLC, priority 2021, published 2024).

molecular target: recombinant IL4I1 (Homo sapiens (Human), UniProt Q96RQ9); test: IL4I1 Enzymatic Assay (Amplex Red/HRP coupled fluorescence detection of H2O2); type: biochemical; conditions: 240 min; recombinant IL4I1, four-hour pre-incubation with compound
How it was run: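 Recombinant human IL4I1 (1 nM final) pre-incubated 4 h with compound at ambient temperature in 50 mM Hepes pH 7.0, 0.005% Tween20. Started with 1 mM each Phe/Tyr/Trp plus Amplex Red/HRP; H2O2-derived resorufin fluorescence read after 120 min; EC50 from ten-point 1:3 titration, four-parameter fit.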

Chain of recombinant IL4I1 (Q96RQ9 22-567): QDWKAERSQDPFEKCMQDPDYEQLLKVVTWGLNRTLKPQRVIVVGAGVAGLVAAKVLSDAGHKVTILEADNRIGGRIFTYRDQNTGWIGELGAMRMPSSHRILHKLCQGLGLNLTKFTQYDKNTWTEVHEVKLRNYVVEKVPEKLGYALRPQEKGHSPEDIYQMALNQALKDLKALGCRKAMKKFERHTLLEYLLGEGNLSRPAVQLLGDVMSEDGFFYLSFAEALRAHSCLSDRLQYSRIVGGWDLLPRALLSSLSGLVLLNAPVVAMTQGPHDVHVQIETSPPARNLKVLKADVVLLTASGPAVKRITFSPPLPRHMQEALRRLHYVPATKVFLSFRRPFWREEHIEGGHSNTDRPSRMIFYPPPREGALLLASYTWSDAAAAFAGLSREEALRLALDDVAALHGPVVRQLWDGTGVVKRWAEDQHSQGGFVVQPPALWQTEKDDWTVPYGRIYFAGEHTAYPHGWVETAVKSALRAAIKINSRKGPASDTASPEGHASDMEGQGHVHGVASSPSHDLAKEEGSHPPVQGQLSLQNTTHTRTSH

| SMILES | EC50 [nM] |
| --- | --- |
| O=C1C(=O)N(C2CCC2)CCN1Cc1ccc(-c2cc(Br)ccc2F)nn1 [Example 81, 1-((6-(5-bromo-2-fluorophenyl)pyridazin-3-yl)methyl)-4-cyclobutylpiperazine-2,3-dione] | 60 |
| CC1(n2ccn(Cc3ccc(-c4ccccn4)cn3)c(=O)c2=O)CC1 [Example 88, 1-([2,3′-bipyridin]-6′-ylmethyl)-4-(1-methylcyclopropyl)-1,4-dihydropyrazine-2,3-dione] | 69 |
| O=c1c(=O)n(C23CC(C2)C3)ccn1Cc1ccc(-c2ccccc2F)nn1 [Example 193, 1-(bicyclo[1.1.1]pentan-1-yl)-4-((6-(2-fluorophenyl)pyridazin-3-yl)methyl)-1,4-dihydropyrazine-2,3-dione] | 8 |
| O=C1C(=O)N(C23CC(F)(C2)C3)CCN1Cc1ccc(-c2cccnc2)nn1 [Example 241, 1-(3-fluorobicyclo[1.1.1]pentan-1-yl)-4-((6-(pyridin-3-yl)pyridazin-3-yl)methyl)piperazine-2,3-dione] | 40 |
| O=C1C(=O)N(C2CCCC2)CCN1Cc1nnc(-c2ccc(F)cc2)s1 [Example 351, 1-cyclopentyl-4-((5-(4-fluorophenyl)-1,3,4-thiadiazol-2-yl)methyl)piperazine-2,3-dione] | 8 |
| O=C1C(=O)N(C2CCC2)CCN1Cc1noc(-c2ccccn2)c1Br [Example 432, 1-((4-bromo-5-(pyridin-2-yl)isoxazol-3-yl)methyl)-4-cyclobutylpiperazine-2,3-dione] | 17 |
| O=C1C(=O)N(C2CCCC2)CCN1Cc1nnc(-c2cccc(F)c2)s1 [Example 8, 1-cyclopentyl-4-((5-(3-fluorophenyl)-1,3,4-thiadiazol-2-yl)methyl)piperazine-2,3-dione] | 7 |
| O=C1C(=O)N(C23CC(F)(C2)C3)CCN1Cc1cc(-c2ccccn2)no1 [Example 232, 1-(3-fluorobicyclo[1.1.1]pentan-1-yl)-4-((3-(pyridin-2-yl)isoxazol-5-yl)methyl)piperazine-2,3-dione] | 82 |
| O=c1c(=O)n(C2CCC2)ccn1Cc1nnc(-c2cccc(F)c2)s1 [Example 28, 1-cyclobutyl-4-((5-(3-fluorophenyl)-1,3,4-thiadiazol-2-yl)methyl)-1,4-dihydropyrazine-2,3-dione] | 8 |
| O=C1C(=O)N(C23CC(C2)C3)CCN1Cc1ccc(-n2nccn2)nn1 [Example 401, 1-((6-(2H-1,2,3-triazol-2-yl)pyridazin-3-yl)methyl)-4-(bicyclo[1.1.1]pentan-1-yl)piperazine-2,3-dione] | 48 |
| O=C1C(=O)N(CC2CC2)CCN1Cc1ncc(-c2ccccc2)cn1 [Example 280, 1-(cyclopropylmethyl)-4-((5-phenylpyrimidin-2-yl)methyl)piperazine-2,3-dione] | 38 |
| N#CC1(n2ccn(Cc3ccc(-c4nccs4)nn3)c(=O)c2=O)CC1 [Example 204, 1-(2,3-dioxo-4-((6-(thiazol-2-yl)pyridazin-3-yl)methyl)-3,4-dihydropyrazin-1(2H)-yl)cyclopropane-1-carbonitrile] | 78 |
| N#Cc1ccc(-c2cc(CN3CCN(C45CC(C4)C5)C(=O)C3=O)no2)cc1 [Example 423, 4-(3-((4-(bicyclo[1.1.1]pentan-1-yl)-2,3-dioxopiperazin-1-yl)methyl)isoxazol-5-yl)benzonitrile] | 19 |
| O=C1C(=O)N(C2CCCC2)CCN1Cc1cnc(-c2ccccc2)nc1 [Example 270, 1-cyclopentyl-4-((2-phenylpyrimidin-5-yl)methyl)piperazine-2,3-dione] | 24 |
| O=c1c(=O)n([C@H]2C[C@@H](c3ccccc3)C2)ccn1Cc1nnc(-c2ccccc2)s1 [Example 48, 1-((5-phenyl-1,3,4-thiadiazol-2-yl)methyl)-4-((cis)-3-phenylcyclobutyl)-1,4-dihydropyrazine-2,3-dione] | 2 |
| O=c1c(=O)n(C2CCCC2)ccn1Cc1ccc(-c2ccccc2F)nn1 [Example 53, 1-cyclopentyl-4-((6-(2-fluorophenyl)pyridazin-3-yl)methyl)-1,4-dihydropyrazine-2,3-dione] | 7 |
| O=C1C(=O)N(C2CCCC2)CCN1Cc1ccc(-c2cnco2)nn1 [Example 6, 1-cyclopentyl-4-((6-(oxazol-5-yl)pyridazin-3-yl)methyl)piperazine-2,3-dione] | 43 |
| O=C1C(=O)N(C2CCCC2)CCN1Cc1nnc(-c2ccccc2)s1 [Example 346, 1-cyclopentyl-4-((5-phenyl-1,3,4-thiadiazol-2-yl)methyl)piperazine-2,3-dione] | 7 |
| N#CC1(n2ccn(Cc3ccc(-n4ccnn4)nn3)c(=O)c2=O)CC1 [Example 335, 1-(4-((6-(1H-1,2,3-triazol-1-yl)pyridazin-3-yl)methyl)-2,3-dioxo-3,4-dihydropyrazin-1(2H)-yl)cyclopropane-1-carbonitrile] | 90 |
| O=c1c(=O)n(C2CCC2)ccn1Cc1cc(-c2ccccc2F)no1 [Example 152, 1-cyclobutyl-4-((3-(2-fluorophenyl)isoxazol-5-yl)methyl)-1,4-dihydropyrazine-2,3-dione] | 2 |
| O=C1C(=O)N(C2CCCC2)CCN1Cc1ccc(N2CC3CC3C2)nn1 (centres unmarked) [Example 320, 1-((6-(3-azabicyclo[3.1.0]hexan-3-yl)pyridazin-3-yl)methyl)-4-cyclopentylpiperazine-2,3-dione] | 20 |
| O=C1C(=O)N(C23CC(C2)C3)CCN1Cc1ccc(-n2nccn2)cc1F [Example 407, 1-(bicyclo[1.1.1]pentan-1-yl)-4-(2-fluoro-4-(2H-1,2,3-triazol-2-yl)benzyl)piperazine-2,3-dione] | 27 |
| O=C1C(=O)N(C23CC(C2)C3)CCN1Cc1cc(-c2cccc(F)c2)on1 [Example 76, 1-(bicyclo[1.1.1]pentan-1-yl)-4-((5-(3-fluorophenyl)isoxazol-3-yl)methyl)piperazine-2,3-dione] | 4 |
| O=C1C(=O)N([C@@H]2CC[C@@H](c3ccccc3)C2)CCN1Cc1nnc(-c2ccccc2)s1 (single isomer, unassigned) [Example 440B, (R or S, R or S)-1-((5-phenyl-1,3,4-thiadiazol-2-yl)methyl)-4-(3-phenylcyclopentyl)piperazine-2,3-dione] | 6 |
| O=c1c(=O)n(C2CCCC2)ccn1Cc1ccc(-c2ccccc2)nn1 [Example 52, 1-cyclopentyl-4-((6-phenylpyridazin-3-yl)methyl)-1,4-dihydropyrazine-2,3-dione] | 4 |
| O=C1C(=O)N(C2CCCC2)CCN1Cc1ncc(-c2ccccc2)cc1F [Example 101, 1-cyclopentyl-4-((3-fluoro-5-phenylpyridin-2-yl)methyl)piperazine-2,3-dione] | 8 |
| O=c1c(=O)n([C@H]2C[C@H]3C[C@H]3C2)ccn1Cc1cnc(-c2ccccc2)cn1 [Example 125] | 3 |
| O=c1c(=O)n([C@H]2C[C@H]3C[C@H]3C2)ccn1Cc1ccc(-n2nccn2)cn1 [Example 408, 1-((5-(2H-1,2,3-triazol-2-yl)pyridin-2-yl)methyl)-4-((cis)-bicyclo[3.1.0]hexan-3-yl)-1,4-dihydropyrazine-2,3-dione] | 8 |
| CC1(n2ccn(Cc3nnc(-c4ccc(F)cc4)s3)c(=O)c2=O)CCC1 [Example 83, 1-((5-(4-fluorophenyl)-1,3,4-thiadiazol-2-yl)methyl)-4-(1-methylcyclobutyl)-1,4-dihydropyrazine-2,3-dione] | 8 |
